Results as given in patent publication US12428455B2, “Dominant negative CEBPB and CEBPD proteins and methods of use for decreasing viability of neoplastic cells” (The Trustees of Columbia University in the City of New York, priority 2018, dated 2025).
No end group written: not given here.

Experiments:
[1] = test system: 293T transformed embryonic kidney cells; experiment: Cell number after peptide treatment, 293T; assay type: cell-based; settings: 6 days, 0 μM to 50 μM; stock without BSA
Method: (§1) Replicate cultures of MDA-MB-468 breast cancer cells, A549 lung cancer cells and 293T transformed embryonic kidney cells were exposed to CP-DN-CEBPB or CP-DN-CEBPD, for 6 days at doses of 0 μM to 50 μM. […] Stock solutions of the peptides were prepared in buffer without added bovine serum albumin (BSA).

[2] = test system: T98G, MDA-MB 231, and MCF7 cells; experiment: Combination with paclitaxel, overall conclusion; assay type: cell-based; settings: co-treatment, cell number or colony number
Method: Replicate cultures of T98G, MDA-MB 231, and MCF7 cells were treated with 1 nM or 5 nM paclitaxel and 3 μM, 10 μM, or 20 μM CP-dn-CEBPB and CP-dn-CEBPD peptides, maintained for 6 days, and then assessed for cell number. The bar graphs of FIGS. 26A (T98G, CP-dn-CEBPB), 26C (T98G, CP-dn-CEBPBD, 26E (MDA-MB-231, CP-dn-CEBPBD), 26G (MDA-MB-231, CP-dn-CEBPD), 26I (MCF7, CP-dn-CEBPBB), and 26K (MCF7, CP-dn-CEBPBD) show relative cell numbers for each condition as compared to untreated controls. The line graphs of FIGS. 26B (T98G, CP-dn-CEBPB), 26D (T98G, CP-dn-CEBPBD), 26F (MDA-MB-231, CP-dn-CEBPB), 26H (MDA-MB-231, CP-dn-CEBPD), 26J (MCF7, CP-dn-CEBPB), and 26L (MCF7 CP-dn-CEBPBD) show the response as normalized in each case so that 100 represents the relative number of surviving cells that received the indicated level of paclitaxel, but no peptide treatment. Calculated combination indices (CI) were as follows: MCF7: CI=0.41±0.04 for CP-dn-CEBPB; 0.44±0.04 for CP-dn-CEBPD; MDA-MB-231: 0.74±0.03 for CP-dn-CEBPB; 0.74±0.05 for CP-dn-CEBPD; T98G: CI=0.84±0.06 for CP-dn-CEBPB and 0.75±0.07 for CP-dn-CEBPD.
Replicate cultures of MDA-MB-231 cells in soft agar were treated with 0.1 nM or 0.5 nM 50 nM or 500 nM CP-dn-CEBPB and CP-dn-CEBPD peptides, maintained for 12 days, and then assessed for colony number. […]

[3] = test system: HIEC-6 non-cancer human intestinal epithelial cells; experiment: Cell number after peptide treatment, HIEC-6; assay type: cell-based; settings: 6 days, 0 μM to 50 μM; stock without BSA
Method: Replicate cultures of HIEC-6 non-cancer human intestinal epithelial cells, MCF10A non-cancer human breast epithelial cells, or normal human astrocytes were exposed to CP-DN-CEBPB or CP-DN-CEBPD, for 6 days at doses of 0 μM to 50 μM. […] Stock solutions of the peptides were prepared in buffer without added bovine serum albumin (BSA).

[4] = test system: A549 lung cancer cells; experiment: Cell number after peptide treatment, A549; assay type: cell-based; settings: 6 days, 0 μM to 50 μM; stock without BSA
Method: as §1

[5] = test system: T98G and HCT116 cells; experiment: Combination with gamma radiation, overall conclusion; assay type: cell-based; settings: 2 Gy or 5 Gy; immediate or delayed peptide treatment
Method: Replicate cultures of T98G and HCT116 cells were exposed to 2 Gy or 5 Gy of gamma radiation. Immediately, the cultures were treated with 3 μM, 10 μM, or 20 μM CP-dn-CEBPB and CP-dn-CEBPD peptides, maintained for 6 days, and then assessed for cell number. […]
Replicate cultures of T98G and HCT116 cells were exposed to 2 Gy or 5 Gy of gamma radiation. One day later, the cultures were treated with 0.05 μM, 0.5 μM, or 5 μM CP-dn-CEBPB and CP-dn-CEBPD peptides, maintained for 6 days, and then assessed for cell number. The bar graphs of FIGS. 24A (T98G, CP-dn-CEBPB), 24C (T98G, CP-dn-CEBPBD, 24E (HCT116, CP-dn-CEBPD), and 24G (HCT116, CP-dn-CEBPD) show relative cell numbers for each condition as compared to untreated controls. The line graphs of FIGS. 24B (T98G, CP-dn-CEBPB), 24D (T98G, CP-dn-CEBPBD, 24F (HCT116, CP-dn-CEBPB), and 24H (HCT116, CP-dn-CEBPD) show the response as normalized in each case so that 100 represents the relative number of surviving cells that received the indicated level of radiation treatment, but no peptide treatment. Calculated Combination Indexes (CI) are T98G, CI=0.61±0.05 for CP-dn-CEBPB, 0.68±0.07 for CP-dn-CEBPD; HCT116, 0.89±0.04 for CP-dn-CEBPB, 0.86±0.05 for CP-dn-CEBPD. […]

[6] = test system: LN229 glioblastoma cells; experiment: Cell number after peptide treatment, LN229; assay type: cell-based, human; settings: for growth and survival of LN229 cells: 6 days, 0 μM to 50 μM, stock without BSA
Method: In some implementations, the mixture of arg/glu may be added at a molarity of, or of about 5 mM, 10 mM, 15 mM, 20 mM, 25 mM, or 30 mM.
Replicate cultures were exposed to the peptides the for 6 days at the indicated concentrations. Stock solutions of the peptides were prepared in buffer without added bovine serum albumin (BSA).

| Sequence | number of 293T cells [1] | kind of combined effect with paclitaxel [2] | number of HIEC-6 cells [3] | number of A549 cells [4] | kind of combined effect with gamma radiation [5] | growth and survival of LN229 cells [6] | effect of adding arg/glu mixture at 2 mM ([6]; cultured LN229 cells) | shift of IC50 by 20 mM arginine and glutamate ([6]; cultured LN229 cells) |
| --- | --- | --- | --- | --- | --- | --- | --- | --- |
| RQIKIWFQNRRMKWKKLETQHKVLELTAENERLQKKVEQLSRELSTLRNLFKQL [CP-DN-CEBPB] | dose-dependent decrease in the number | synergistic effect | did not cause a dose-dependent decrease | dose-dependent decrease in the number | synergistic effect | decrease in growth and survival | only minimal effect | – |
| RQIKIWFQNRRMKWKKLVELSAENEKLHQRVEQLTRDLAGLRQFFK [CP-DN-CEBPD] | dose-dependent decrease in the number | synergistic effect | did not cause a dose-dependent decrease | dose-dependent decrease in the number | synergistic effect | decrease in growth and survival | only minimal effect | 10 fold |
